Experimental data taken from patent US6525001B1, “Substituted pyrimidine and pyridine herbicides” (Mid-American Commercialization Corporation, priority 1997, dated 2003).

Assays:
Experiment in all cases: Test B pre-/postemergence
Format in all cases: in vivo
Parameters in all cases: key: 0 is no effect; 10 is complete control
[1] = tested on: velvetleaf (Abutilon theophrasti)
How it was run: (§1)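 Response scores run from 0, meaning no effect, to 10, meaning complete control, assigned by eye relative to controls twelve to sixteen days after spraying. Treatment was both preemergence on planted seed and postemergence on plants at the 1- to 4-leaf stage.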

[2] = tested on: pigweed (Amaranthus retroflexus)
How it was run: as §1

[3] = tested on: wheat (Triticum aestivum)
How it was run: as §1

[4] = tested on: blackgrass (Alopecurus myosuroides)
How it was run: as §1

[5] = tested on: cocklebur (Xanthium strumarium)
How it was run: as §1

soybean (Glycine max) = tested on: soybean (Glycine max)
How it was run: as §1

[6] = tested on: bedstraw (Galium aparine)
How it was run: as §1

rape (Brassica napus) = tested on: rape (Brassica napus)
How it was run: as §1

[7] = tested on: sugar beet (Beta vulgaris)
How it was run: as §1

[8] = tested on: crabgrass (Digitaria sanguinalis)
How it was run: as §1

[9] = tested on: momingglory (Ipomoea hederacea)
How it was run: as §1

[10] = tested on: giant foxtail (Setaria faberii)
How it was run: as §1

[11] = tested on: broadleaf signalgrass (Brachiaria decumbens)
How it was run: as §1

corn (Zea mays) = tested on: corn (Zea mays)
How it was run: as §1

[12] = Preemergence, Rate 62 g/ha, scale of 0 to 10

Compound: Cc1cnc(-n2cnc(C(F)(F)F)n2)nc1C(=O)c1cccc(OC(F)(F)F)c1 [Compound 64]
- Plant response rating, Velvetleaf [1, 12]: 4
- Velvetleaf plant response rating ([1]; Rate 62 g/ha, Postemergence): 2
- Velvetleaf plant response rating ([1]; Rate 125 g/ha, Postemergence): 7
- Plant response rating, Velvetleaf ([1]; Rate 125 g/ha, Preemergence): 6
- Plant response rating, Velvetleaf ([1]; Rate 250 g/ha, Postemergence): 8
- Plant response rating, Velvetleaf ([1]; Rate 250 g/ha, Preemergence): 6
- Plant response rating, Velvetleaf ([1]; Rate 500 g/ha, Postemergence): 9
- Plant response rating, Velvetleaf ([1]; Rate 500 g/ha, Preemergence): 10
- Plant response rating, Redroot pigweed [2, 12]: 9
- Redroot pigweed plant response rating ([2]; Rate 62 g/ha, Postemergence): 8
- Redroot pigweed plant response rating ([2]; Rate 125 g/ha, Postemergence): 9
- Plant response rating, Redroot pigweed ([2]; Rate 125 g/ha, Preemergence): 9
- Plant response rating, Redroot pigweed ([2]; Rate 250 g/ha, Postemergence): 10
- Plant response rating, Redroot pigweed ([2]; Rate 250 g/ha, Preemergence): 10
- Plant response rating, Redroot pigweed ([2]; Rate 500 g/ha, Postemergence): 10
- Plant response rating, Redroot pigweed ([2]; Rate 500 g/ha, Preemergence): 10
- Plant response rating, Wheat [3, 12]: 0
- Wheat plant response rating ([3]; Rate 62 g/ha, Postemergence): 2
- Wheat plant response rating ([3]; Rate 125 g/ha, Postemergence): 3
- Plant response rating, Wheat ([3]; Rate 125 g/ha, Preemergence): 0
- Plant response rating, Wheat ([3]; Rate 250 g/ha, Postemergence): 3
- Plant response rating, Wheat ([3]; Rate 250 g/ha, Preemergence): 1
- Plant response rating, Wheat ([3]; Rate 500 g/ha, Postemergence): 5
- Plant response rating, Wheat ([3]; Rate 500 g/ha, Preemergence): 2
- Plant response rating, Blackgrass [4, 12]: 5
- Blackgrass plant response rating ([4]; Rate 62 g/ha, Postemergence): 4
- Blackgrass plant response rating ([4]; Rate 125 g/ha, Postemergence): 5
- Plant response rating, Blackgrass ([4]; Rate 125 g/ha, Preemergence): 6
- Plant response rating, Blackgrass ([4]; Rate 250 g/ha, Postemergence): 7
- Plant response rating, Blackgrass ([4]; Rate 250 g/ha, Preemergence): 6
- Plant response rating, Blackgrass ([4]; Rate 500 g/ha, Postemergence): 9
- Plant response rating, Blackgrass ([4]; Rate 500 g/ha, Preemergence): 9
- Plant response rating, Cocklebur [5, 12]: 1
- Cocklebur plant response rating ([5]; Rate 62 g/ha, Postemergence): 6
- Cocklebur plant response rating ([5]; Rate 125 g/ha, Postemergence): 7
- Plant response rating, Cocklebur ([5]; Rate 125 g/ha, Preemergence): 1
- Plant response rating, Cocklebur ([5]; Rate 250 g/ha, Postemergence): 7
- Plant response rating, Cocklebur ([5]; Rate 500 g/ha, Postemergence): 9
- Plant response rating, Cocklebur ([5]; Rate 500 g/ha, Preemergence): 7
- Plant response rating, Soybean (soybean (Glycine max); [12]): 0
- Soybean plant response rating (soybean (Glycine max); Rate 62 g/ha, Postemergence): 2
- Soybean plant response rating (soybean (Glycine max); Rate 125 g/ha, Postemergence): 3
- Plant response rating, Soybean (soybean (Glycine max); Rate 125 g/ha, Preemergence): 1
- Plant response rating, Soybean (soybean (Glycine max); Rate 250 g/ha, Postemergence): 5
- Plant response rating, Soybean (soybean (Glycine max); Rate 250 g/ha, Preemergence): 1
- Plant response rating, Soybean (soybean (Glycine max); Rate 500 g/ha, Postemergence): 6
- Plant response rating, Soybean (soybean (Glycine max); Rate 500 g/ha, Preemergence): 1
- Plant response rating, Bedstraw [6, 12]: 3
- Bedstraw plant response rating ([6]; Rate 62 g/ha, Postemergence): 3
- Bedstraw plant response rating ([6]; Rate 125 g/ha, Postemergence): 4
- Plant response rating, Bedstraw ([6]; Rate 125 g/ha, Preemergence): 8
- Plant response rating, Bedstraw ([6]; Rate 250 g/ha, Postemergence): 7
- Plant response rating, Bedstraw ([6]; Rate 250 g/ha, Preemergence): 8
- Plant response rating, Bedstraw ([6]; Rate 500 g/ha, Postemergence): 9
- Plant response rating, Bedstraw ([6]; Rate 500 g/ha, Preemergence): 9
- Plant response rating, Rape (rape (Brassica napus); [12]): 3
- Rape plant response rating (rape (Brassica napus); Rate 62 g/ha, Postemergence): 3
- Rape plant response rating (rape (Brassica napus); Rate 125 g/ha, Postemergence): 4
- Plant response rating, Rape (rape (Brassica napus); Rate 125 g/ha, Preemergence): 4
- Plant response rating, Rape (rape (Brassica napus); Rate 250 g/ha, Postemergence): 4
- Plant response rating, Rape (rape (Brassica napus); Rate 250 g/ha, Preemergence): 8
- Plant response rating, Rape (rape (Brassica napus); Rate 500 g/ha, Postemergence): 4
- Plant response rating, Rape (rape (Brassica napus); Rate 500 g/ha, Preemergence): 10
- Plant response rating, Sugarbeets [7, 12]: 9
- Sugarbeets plant response rating ([7]; Rate 62 g/ha, Postemergence): 9
- Sugarbeets plant response rating ([7]; Rate 125 g/ha, Postemergence): 10
- Plant response rating, Sugarbeets ([7]; Rate 125 g/ha, Preemergence): 10
- Plant response rating, Sugarbeets ([7]; Rate 250 g/ha, Postemergence): 10
- Plant response rating, Sugarbeets ([7]; Rate 250 g/ha, Preemergence): 10
- Plant response rating, Sugarbeets ([7]; Rate 500 g/ha, Postemergence): 10
- Plant response rating, Sugarbeets ([7]; Rate 500 g/ha, Preemergence): 10
- Plant response rating, Crabgrass [8, 12]: 9
- Crabgrass plant response rating ([8]; Rate 62 g/ha, Postemergence): 4
- Crabgrass plant response rating ([8]; Rate 125 g/ha, Postemergence): 5
- Plant response rating, Crabgrass ([8]; Rate 125 g/ha, Preemergence): 10
- Plant response rating, Crabgrass ([8]; Rate 250 g/ha, Postemergence): 9
- Plant response rating, Crabgrass ([8]; Rate 250 g/ha, Preemergence): 10
- Plant response rating, Crabgrass ([8]; Rate 500 g/ha, Postemergence): 9
- Plant response rating, Crabgrass ([8]; Rate 500 g/ha, Preemergence): 10
- Plant response rating, Morningglory [9, 12]: 4
- Morningglory plant response rating ([9]; Rate 62 g/ha, Postemergence): 2
- Morningglory plant response rating ([9]; Rate 125 g/ha, Postemergence): 8
- Plant response rating, Morningglory ([9]; Rate 125 g/ha, Preemergence): 10
- Plant response rating, Morningglory ([9]; Rate 250 g/ha, Postemergence): 8
- Plant response rating, Morningglory ([9]; Rate 250 g/ha, Preemergence): 10
- Plant response rating, Morningglory ([9]; Rate 500 g/ha, Postemergence): 8
- Plant response rating, Morningglory ([9]; Rate 500 g/ha, Preemergence): 10
- Plant response rating, Giant foxtail [10, 12]: 1
- Giant foxtail plant response rating ([10]; Rate 62 g/ha, Postemergence): 1
- Giant foxtail plant response rating ([10]; Rate 125 g/ha, Postemergence): 3
- Plant response rating, Giant foxtail ([10]; Rate 125 g/ha, Preemergence): 2
- Plant response rating, Giant foxtail ([10]; Rate 250 g/ha, Postemergence): 4
- Plant response rating, Giant foxtail ([10]; Rate 250 g/ha, Preemergence): 5
- Plant response rating, Giant foxtail ([10]; Rate 500 g/ha, Postemergence): 5
- Plant response rating, Giant foxtail ([10]; Rate 500 g/ha, Preemergence): 6
- B. signalgrass plant response rating ([11]; Rate 62 g/ha, Postemergence): 4
- B. signalgrass plant response rating ([11]; Rate 62 g/ha, Preemergence): 8
- B. signalgrass plant response rating ([11]; Rate 125 g/ha, Postemergence): 5
- Plant response rating, B. signalgrass ([11]; Rate 125 g/ha, Preemergence): 9
- Plant response rating, B. signalgrass ([11]; Rate 250 g/ha, Postemergence): 6
- Plant response rating, B. signalgrass ([11]; Rate 250 g/ha, Preemergence): 10
- Plant response rating, B. signalgrass ([11]; Rate 500 g/ha, Postemergence): 8
- Plant response rating, B. signalgrass ([11]; Rate 500 g/ha, Preemergence): 10
- Plant response rating, Corn (corn (Zea mays); [12]): 3
- Corn plant response rating (corn (Zea mays); Rate 62 g/ha, Postemergence): 1
- Corn plant response rating (corn (Zea mays); Rate 125 g/ha, Postemergence): 3
- Plant response rating, Corn (corn (Zea mays); Rate 125 g/ha, Preemergence): 3
- Plant response rating, Corn (corn (Zea mays); Rate 250 g/ha, Postemergence): 4
- Plant response rating, Corn (corn (Zea mays); Rate 250 g/ha, Preemergence): 4
- Plant response rating, Corn (corn (Zea mays); Rate 500 g/ha, Postemergence): 5
- Plant response rating, Corn (corn (Zea mays); Rate 500 g/ha, Preemergence): 4
